# According to patent publication US5935997A, “O-thiocarbamoyl-aminoalkanol compounds, their pharmaceutically useful salts and process for preparing the same” (Yukong Limited, priority 1998, dated 1999):
# How the values were obtained:
# [1] = test system: mice (CD-1 strain); experiment: Forced Swimming Test (antidepressant; reduction of immobility); type: in vivo; details: one hour prior to immersion, immobility in 15 min
# Procedure: The therapeutic use of the compounds claimed in the present invention as antidepressants has been proven by the "Forced Swinuning Test", a well known pharmacological screening methods for depression and the results are shown in the following Table II. The procedure described by Porsolt et al., […] was used. Test compound was administered p.o. and i.p. to mice (CD-1 strain), one hour prior to the animals being immersed in a 1500 mL glass beaker (16.5 cm deep, 13.0 cm diameter) filled with water (20~23° C.) to about 5 cm from the top. Mice were kept in the water for a period of 15 minutes and the duration of immobility observed within the 15-minute test period was recorded. A mouse was judged to be immobile if it floated motionlessly in the water making only those movements necessary to keep its head above the water.
# [2] = test system: mice (CD-1strain); experiment: Maximal ElectroShock (MES) test (anticonvulsant); type: in vivo; details: for MES (animals protected/tested): 30 mg/kg; for ED50: Mus musculus
structure (smiles),measurement,setting,value
NC(=S)OC[C@@H](N)Cc1ccccc1,"Inhibition (reduction, %)",[1]; i.p. (30 mg/kg),51.2%
NC(=S)OCC(N)Cc1ccc(Cl)cc1 (stereo not drawn),"Inhibition (reduction, %)",[1]; i.p. (30 mg/kg),30.6%
same,"Inhibition (reduction, %)",[1]; p.o. (30 mg/kg),38.1%
CNC(=S)OC[C@H](N)Cc1ccccc1,MES (animals protected/tested),"[2]; po, 0.5 h",3/3
CN(C)C(=S)OC[C@H](N)Cc1ccc(Cl)c(Cl)c1,MES (animals protected/tested),"[2]; ip, 4.0 h",1/3
NC(=S)OC[C@H](N)Cc1ccccc1 [drawing 22],"Inhibition (reduction, %)",[1]; i.p. (30 mg/kg),41.6%
CNC(=S)OCC(Cc1ccccc1)N(C)C (stereo not drawn) [drawing 26],"Inhibition (reduction, %)",[1]; i.p. (30 mg/kg),31.4%
same,"Inhibition (reduction, %)",[1]; p.o. (30 mg/kg),23.4%
NC(=S)OC[C@H](N)Cc1ccccc1 [drawing 29],ED50,"[2]; ip, 0.5 h",29 mg/kg
same,ED50,"[2]; po, 0.5 h",189 mg/kg
CNC(=S)OCC(Cc1ccccc1)N(C)C (stereo not drawn) [drawing 33],ED50,"[2]; ip, 1 h",31.5 mg/kg
same,ED50,"[2]; po, 0.5 h",82.5 mg/kg
